Read-outs that look alike come from different tables or passages of the source.
What was measured:
healthy subjects [1] = test: Adjective Mood Rating Scale (AMRS), clinical study; type: in vivo, humans; conditions: peak change from baseline, mean±SEM, 16 subjects
Experimental: The washout periods between the sessions were at least 10 days long.
Identical placebo (lactose) capsules were prepared. […] Drugs were administered without food.
The psychometric measures included Visual Analog Scales (VAS), [10], the Adjective Mood Rating Scale (AMRS), and 5-Dimensions of Altered States of Consciousness (5D-ASC), [23]. […] The VASs were presented as 100 mm horizontal lines marked “not at all" on the left and “extremely" on the right. The VASs for “closeness to others," “open," and “talkative" were bidirectional (±50 mm). The VASs were administered 4 h before and 0, 0.33, 1, 1.5, 2, 2.5, 3, 3.5, 4, and 5 h after MDMA or placebo administration. […] The AMRS contains subscales for activity, extroversion and introversion, well-being, emotional excitation, anxiety-depression, and dreaminess. The 5D-ASC rating scale measures alterations in mood, perception, experience of self in relation to the environment, and thought disorder. The 5D-ASC rating scale comprises five subscales or dimensions and 11 lower-order scales. The 5D-ASC dimension “oceanic boundlessness" (OB, 27 items) measures derealization and depersonalization associated with positive emotional states, ranging from heightened mood to euphoric exaltation. […] The global ASC score was determined by adding the OB, AED, and VR scores. The 5D-ASC scale was administered 4 h after MDMA or placebo administration.
Clinical data values were transformed to differences from baseline. Peak effects (Emax) were determined for repeated measures. Emax values were compared using General Linear Models repeated-measures analysis of variance, with drug as within-subject factor, using Statistica 6.0 software (StatSoft, Tulsa, OK). Tukey post hoc comparisons were performed based on significant main effects of treatment. Additional analyses of variance were performed, with period as factor to exclude period effects. Correlation analyses were performed using Pearson’s correlations. The criterion for significance was p<0.05. Mean arterial pressure (MAP) was calculated from diastolic blood pressure and systolic blood pressure using the following formula: MAP = DBP+(SBP - DBP)/3.

DAT = DAT (Homo sapiens, UniProt Q01959); conditions: % of plasma sample dilution, undiluted plasma = 100%; plasma 120 min after MDMA/placebo
HEK 293 cells = test: Toxilight toxicity assay, cell integrity; type: cell-based, human
[2] = cited from earlier work
[3] = parameters: method as in earlier work; conditions: cited from earlier work
NET = NET (Homo sapiens, UniProt P23975); test: [3H]-NE uptake inhibition, method A (silicon oil); type: cell-based; parameters: expressed in transfected cells; host or cells: HEK 293 cells (Invitrogen), stably transfected
healthy subjects [4] = test: Soft-link PK-PD model, MDMA plasma concentration vs VAS any drug effect; type: in vivo, humans; conditions: for EC50: Homo sapiens
Excerpt: PK-PD modeling: First, a soft-link PK-PD model was used to evaluate the in vivo relationship between the concentration of MDMA and subjective effect of the drug. The change in the VAS for any drug effect was used as the pharmacodynamic measure in each individual. Because we observed clockwise hysteresis in the effect-concentration relationship over time, we used PK-PD data pairs within the ascending part of the individual curves up to Emax or Cmax. Our estimate of Emax, which should represent the maximal response portion of the dose-response curve, may already have been affected by tolerance. […] Based on the good brain penetration of MDMA and absence of a time lag, we assumed rapid equilibration between plasma and the central compartment (brain). […] The sigmoid Emax model provided a better fit than a simple Emax or linear model. Data pooling was used because only few data pairs were available per subject. Non-linear regression was used to obtain parameter estimates. Second, we also used a hard-link PK-PD model to predict in vivo PD effects based on the in vitro concentration-response data linked to the observed individual in vivo PK. […] Similar to the soft-link PK-PD model, a single compartment PK model (plasma = brain concentration) was used, and only ascending PK or PD values were included. The in vivo data were linked to the PK of each individual, and a mean predicted effect-time curve was established.

Sequence of NET (P23975 whole entry): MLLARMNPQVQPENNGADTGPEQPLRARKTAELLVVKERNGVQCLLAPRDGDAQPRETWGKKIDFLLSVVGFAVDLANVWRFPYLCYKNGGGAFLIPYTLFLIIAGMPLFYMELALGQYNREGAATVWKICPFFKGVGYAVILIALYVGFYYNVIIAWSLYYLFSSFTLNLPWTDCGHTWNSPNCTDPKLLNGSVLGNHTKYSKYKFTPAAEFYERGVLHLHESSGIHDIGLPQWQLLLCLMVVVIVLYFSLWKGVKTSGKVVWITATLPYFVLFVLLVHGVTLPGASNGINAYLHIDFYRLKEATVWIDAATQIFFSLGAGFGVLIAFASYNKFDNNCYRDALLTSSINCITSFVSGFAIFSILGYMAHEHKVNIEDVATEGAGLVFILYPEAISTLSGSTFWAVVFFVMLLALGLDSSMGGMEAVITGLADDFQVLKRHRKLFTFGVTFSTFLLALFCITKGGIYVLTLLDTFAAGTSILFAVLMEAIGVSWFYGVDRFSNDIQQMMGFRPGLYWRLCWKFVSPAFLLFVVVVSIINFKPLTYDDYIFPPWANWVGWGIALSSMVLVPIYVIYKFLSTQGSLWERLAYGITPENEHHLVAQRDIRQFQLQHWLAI
Sequence of DAT (Q01959 whole entry): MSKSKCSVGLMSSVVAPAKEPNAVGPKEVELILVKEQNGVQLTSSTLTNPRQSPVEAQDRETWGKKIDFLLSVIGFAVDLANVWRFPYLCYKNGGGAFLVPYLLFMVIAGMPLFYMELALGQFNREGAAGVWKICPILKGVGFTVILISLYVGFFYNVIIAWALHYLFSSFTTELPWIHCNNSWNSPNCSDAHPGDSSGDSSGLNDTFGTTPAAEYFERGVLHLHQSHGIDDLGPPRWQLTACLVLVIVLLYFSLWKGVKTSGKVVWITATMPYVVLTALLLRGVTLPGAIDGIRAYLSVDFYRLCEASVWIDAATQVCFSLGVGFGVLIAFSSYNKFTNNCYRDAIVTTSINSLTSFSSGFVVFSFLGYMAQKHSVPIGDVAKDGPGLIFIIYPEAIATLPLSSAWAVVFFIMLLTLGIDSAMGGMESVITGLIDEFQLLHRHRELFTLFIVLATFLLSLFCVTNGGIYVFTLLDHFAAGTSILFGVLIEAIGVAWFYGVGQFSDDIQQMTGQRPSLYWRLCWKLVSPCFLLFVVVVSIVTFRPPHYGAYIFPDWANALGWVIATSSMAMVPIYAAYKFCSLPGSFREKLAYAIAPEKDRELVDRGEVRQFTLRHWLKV

CNC(C)Cc1ccc2c(c1)OCO2 (centres unmarked) [MDMA, 3,4-methylenedioxymethamphetamine]
AMRS Activity, Emin (healthy subjects [1]): −4.69±1.04 | AMRS Dreaminess, Emax (healthy subjects [1]): 2.94±0.66 | AMRS Emotional excitation, Emax (healthy subjects [1]): 4.94±0.97 | AMRS Extroversion, Emax (healthy subjects [1]): 3.50±0.61 | AMRS Introversion, Emax (healthy subjects [1]): 2.62±0.65 | AMRS Well-being, Emax (healthy subjects [1]): 7.06±1.01 | Ex vivo binding (IC50%) DAT (DAT): >25% | Cell integrity after treatment (HEK 293 cells): confirmed | T1/2 ([2]; 100 -125 mg dose): 8 to 9 h | Increase of MDMA plasma levels ([2]; pretreatment with paroxetine): 30% | Tmax ([2]; single dose): 2 to 2.4 h | Mean duration of subjective and cardiovascular effects [3]: 3.5 h | Time within which effects completely subside [3]: 5 to 6 h | Ki (NET): 470 nM | Potency of NET inhibition relative to SERT (NET; uptake inhibition): three-fold more potently | EC50 (healthy subjects [4]; second statement, in brackets, read-out: EC50 of the PK-PD curve in humans): 380 nM | EC50 (healthy subjects [4]; second statement, read-out: EC50 of the PK-PD curve in humans): 0.074 µg/mL | EC50 (healthy subjects [4]; sigmoid Emax model, in brackets, read-out: EC50 of in vivo PK-PD relationship (MDMA plasma concentration)): 480 nM | EC50 (healthy subjects [4]; sigmoid Emax model, pooled data, read-out: EC50 of in vivo PK-PD relationship (MDMA plasma concentration)): 0.0925 ± 0.0076 µg/mL | Emax of in vivo PK-PD relationship (any drug effect) (healthy subjects [4]; sigmoid Emax model, pooled data): 93.8±7.3%
